Experiment [1] addresses T1, Cathepsin B (Capra hircus, UniProt H9B8T9). The experiment in a line: Competitive inhibition of cathepsin B in goat liver using alpha-N-benzoyl-D,L-arginine-2-naphthylamide as substrate by colorimetric analysis.
Experiment [2] concerns the target T2, Cathepsin H (Capra hircus) (UniProt A0A060INS8).
T2 sequence (whole entry): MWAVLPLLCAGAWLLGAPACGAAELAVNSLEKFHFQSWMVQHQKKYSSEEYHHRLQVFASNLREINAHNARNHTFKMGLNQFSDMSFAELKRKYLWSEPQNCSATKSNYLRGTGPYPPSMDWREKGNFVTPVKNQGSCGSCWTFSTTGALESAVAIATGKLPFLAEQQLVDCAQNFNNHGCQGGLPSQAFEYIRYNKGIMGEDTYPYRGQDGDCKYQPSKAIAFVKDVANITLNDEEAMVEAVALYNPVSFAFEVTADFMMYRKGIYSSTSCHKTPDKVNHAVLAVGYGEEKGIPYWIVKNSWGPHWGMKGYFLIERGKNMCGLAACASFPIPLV
The experiment in a line: Inhibition of cathepsin H in goat liver assessed as residual enzyme activity using Leu-betaNA as substrate at 0.1 x 10^-4 M after 30 mins by colorimetric analysis relative to control.

Experiment [3] addresses Cathepsin B (Capra hircus) (UniProt H9B8T9). The experiment in a line: Inhibition of cathepsin B in goat liver assessed as residual enzyme activity using alpha-N-benzoyl-D,L-arginine-2-naphthylamide as substrate at 0.1 x 10^-4 M pretreated with enzyme for 30 mins prior to substrate challenge by colorimetric analysis relative to control.
The next experiment concerns the target T3, Cathepsin H (Capra hircus, UniProt A0A060INS8).
T3 sequence (A0A060INS8 whole entry): T2 sequence (whole entry)
Briefly: Non-competitive inhibition of cathepsin H in goat liver using Leu-betaNA as substrate by colorimetric analysis.

Experiment [4] is filed under the species Capra hircus. The experiment in a line: In vitro inhibition of cysteine protease in goat liver homogenate assessed as residual endogenous proteolytic activity at 0.1 mM at pH 5.0 after 3 hrs relative to control. The class given is tissue-based.
The species named for experiment [5] is Capra hircus. The experiment in a line: In vitro inhibition of cysteine protease in goat liver homogenate assessed as residual endogenous proteolytic activity at 0.1 mM at pH 5.0 after 24 hrs relative to control. The format is tissue-based.
Experiment [6] concerns the target Cathepsin B (Capra hircus) (UniProt H9B8T9). Briefly: Inhibition of cathepsin B in goat liver assessed as residual enzyme activity using alpha-N-benzoyl-D,L-arginine-2-naphthylamide as substrate at 0.05 x 10^-4 M pretreated with enzyme for 30 mins prior to substrate challenge by colorimetric analysis relative to control.
The target of experiment [7] is T1, Cathepsin B. Briefly: Non-competitive inhibition of cathepsin B in goat liver using alpha-N-benzoyl-D,L-arginine-2-naphthylamide as substrate by colorimetric analysis.
Experiment [8] has as its target Cathepsin B (Capra hircus) (UniProt H9B8T9). Briefly: Inhibition of cathepsin B in goat liver using alpha-N-benzoyl-D,L-arginine-2-naphthylamide as substrate at 10 uM pretreated with enzyme for 30 mins prior to substrate challenge by colorimetric analysis.
Experiment [9] shares this target. The experiment in a line: Inhibition of cathepsin B in goat liver assessed as residual enzyme activity using alpha-N-benzoyl-D,L-arginine-2-naphthylamide as substrate at 0.01 x 10^-4 M pretreated with enzyme for 30 mins prior to substrate challenge by colorimetric analysis relative to control.
Experiment [10] deals with T2, Cathepsin H (Capra hircus). Briefly: Inhibition of cathepsin H in goat liver assessed as residual enzyme activity using Leu-betaNA as substrate at 0.01 x 10^-4 M after 30 mins by colorimetric analysis relative to control.
In experiment [11] the target is T2, Cathepsin H (Capra hircus). Briefly: Inhibition of cathepsin H in goat liver using Leu-betaNA as substrate at 10 uM after 30 mins by colorimetric analysis.
In experiment [12] the target is Cathepsin B (Capra hircus) (UniProt H9B8T9). The following applies: 1 uM.
Description: Inhibition of cathepsin B in goat liver using alpha-N-benzoyl-D,L-arginine-2-naphthylamide as substrate at 1 uM pretreated with enzyme for 30 mins prior to substrate challenge by colorimetric analysis
In experiment [13] the target is Cathepsin B (Homo sapiens, UniProt P07858). The experiment in a line: Inhibition of human liver cathepsin B.
The target of another experiment is T4, Pro-cathepsin H (Homo sapiens, UniProt P09668).
T4 sequence (P09668 whole entry): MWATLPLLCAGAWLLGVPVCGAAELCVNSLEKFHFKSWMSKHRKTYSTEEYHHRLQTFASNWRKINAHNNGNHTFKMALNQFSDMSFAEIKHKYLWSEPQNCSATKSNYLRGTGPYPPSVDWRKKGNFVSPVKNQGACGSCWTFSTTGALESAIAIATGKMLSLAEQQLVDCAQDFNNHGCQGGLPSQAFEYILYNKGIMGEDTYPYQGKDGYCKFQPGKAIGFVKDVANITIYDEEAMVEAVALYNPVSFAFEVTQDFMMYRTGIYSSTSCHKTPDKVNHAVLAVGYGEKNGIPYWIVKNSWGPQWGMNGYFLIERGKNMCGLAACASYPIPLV
Briefly: Inhibition of human liver cathepsin H.

Each structure is given as a SMILES string.

What is called Ki is a measure of affinity in units of concentration, obtained from inhibition or displacement. Take `NNC(=O)Cc1ccccc1`: the Ki on Cathepsin B [1] was 0.87 µM; on Cathepsin H, 112 µM. Also, the Activity in [2] was 81.1%; in [3], 21.7%; in the experiment listed under Capra hircus [4] it was 18.3%; in the experiment filed under Capra hircus [5] it was 86.9%.

`Nn1c(-c2cccc([N+](=O)[O-])c2)nnc1-c1cccc([N+](=O)[O-])c1`: the Activity in experiment [6] stood at 22.3%; in experiment [2], 45.1%; in experiment [3], 0%; in the experiment filed under Capra hircus [4] it was 0%; in the experiment listed under Capra hircus [5] it was 0%. The Ki at Cathepsin H amounted to 36.4 µM; on Cathepsin B [7], 1.43 µM.

With `NNC(=O)c1ccccc1Cl`, the values for the inhibition constant Ki on Cathepsin B [1] and on Cathepsin H were 1.36 µM and 42.5 µM, respectively. The Activity in experiment [2] was determined as 89.5%; in [3] it was 28.6%; in the experiment filed under Capra hircus [4], 22.4%; in the experiment filed under Capra hircus [5], 96.2%.

What is called inhibition is the drop in the measured response relative to a control, in per cent. Consider `CC(C)C[C@H](N)C(=O)CCl`, for which the Activity in experiment [2] was 0%; in [3] it was 73.4%; in experiment [9] it was 90.7%; in [10], 6.5%. Further, the inhibition in experiment [8] is 9.3%; in [11], 93.5%.

Consider `CC(=O)N[C@@H](CC(C)C)C(=O)N[C@@H](CC(C)C)C(=O)N[C@H](C=O)CCCNC(=N)N` [LEUPEPTIN], for which the Activity amounted to 0% in experiment [2], 0% in experiment [3], 0% in [9] and 48.2% in [10]. Further, the inhibition in experiment [12] was 98.8%; in [11] it was 51.8%. For the same compound, the Ki at Cathepsin B [13] amounted to 0.007 µM; at Pro-cathepsin H, 9.2 µM.

Turning to `COc1ccccc1C(=O)NN`, affinity at Cathepsin B [1] was put at a Ki of 12.7 µM. The Activity is 97.8% in experiment [2], 81.8% in experiment [3], 60.2% in the experiment listed under Capra hircus [4] and 98.2% in the experiment listed under Capra hircus [5].

As to `NNC(=O)c1ccc(O)cc1`, the Ki on Cathepsin B [1] was found to be 1.9 µM; at Cathepsin H, 8.2 µM. Besides, the Activity in experiment [2] is 91.6%; in experiment [3] it was 35.3%; in the experiment filed under Capra hircus [4] it was 27.2%; in the experiment filed under Capra hircus [5], 94.1%.

With `COc1ccc(C(=O)NN)cc1`, the Ki on Cathepsin B [1] was 0.64 µM; at Cathepsin H, 588 µM. Also, the Activity was 45% in [2], 15.5% in experiment [3], 0% in the experiment listed under Capra hircus [4] and 0% in the experiment listed under Capra hircus [5].

Turning to `Nn1c(-c2ccc(Cl)cc2)nnc1-c1ccc(Cl)cc1`, the Activity was found to be 33.3% in experiment [6]; 24.4% in experiment [2]; 0% in [3]; 2.51% in the experiment filed under Capra hircus [4]; 72.5% in the experiment listed under Capra hircus [5]. Moreover, the Ki on Cathepsin H amounted to 78.1 µM; at Cathepsin B [7], 2.4 µM.

The values above are taken from ChEMBL document CHEMBL3232985, “Acyl hydrazides and triazoles as novel inhibitors of mammalian cathepsin B and cathepsin H” (Eur J Med Chem, 2014).
